Here are results for four compounds from US9610332B2, “Compositions and methods for modulating BRD4 bioactivity” (priority 2012, dated 2017).

The subject of assay [1] is U20S cells overexpressing Brd4 isoform B. Kind of assay: γH2AX foci / DDR signaling suppression in cells overexpressing Brd4 isoform B. In kind it is cell-based, human. To be noted: for sensitivity of suppression of DDR signaling by Brd4 isoform B overexpression to transcription or translation inhibition: a-amanitin 1-16 μM, cycloheximide 35-560 μM.
Description: U20S cells were plated on #1 glass coverslips (VWR) and were cultured in DMEM+Pen/Strep+10% v/v FBS (complete media) at 37° C. in a 5% CO2 atmosphere, then exposed to 10 Gy Ionizing radiation from a 137CS source in a Gammacell irradiator (Atomic Energy of Canada, Ltd). fixed in methanol, and processed for immuofluorescence using the antibodies indicated above. Images were captured on a Zeiss Axiophot II microscope with a Hamamatsu CCD camera and processed with OpenLab/Volocity software. Quantitative image analysis was accomplished using CellProfiler (www.CellProfiler.org) or ImageJ software (http://rsb.info.nih.gov/nihimageJ).
(§1) UCN01 was from Sigma (cat. #U6508) and was used at concentrations of 0.003-10 μM.
3×10^6 U20S cells were plated and transiently transfected with pEGFP-C 1, isoform C, isoform B, isoform B, BD1 mutant, Brd4-NUT and truncated Brd4-NUT using Fugene 6 (Roche). These cells were exposed to 10 Gy Ionizing radiation and harvested 24 hrs later, fixed with 4% formaldehyde, extracted with 100% ethanol, processed for flow cytometry using the antibodies listed above. Data were analyzed using FlowJo (www.flowjo.com) software.
U20S cell lines stably expressing this shRNA or control hairpins (ineffective hairpins directed against human sequences of BAD and PUMA) were created using puromycin selection at 2 ug/mL. STEALTH siRNA against BRD4 and control were purchased from Invitrogen, and used according to manufacturer's instructions.
Assay [2] relates to U20S cells. Kind of assay: H2AX phosphorylation / γH2AX foci after IR with Brd4 bromodomain inhibitor. In kind it is cell-based, human.
Description: For small molecule testing, cells were plated at 500 cells/well in 384-well plates. The day after plating, small molecules at different concentrations in 100 nL DMSO were pin transferred to cells with a CyBio robot, and cells were propagated for 16 hours.
All plates were treated with 10 Gy of 667 keV X-rays from a 137Cs source in a Gammacell irradiator (Atomic Energy of Canada, Ltd). A 0 hour control plate was not irradiated. The plates were returned to the incubator and fixed with 4.4% w/v paraformaldehyde in phosphate-buffered saline (PBS) at 1, 6, and 24 hours post irradiation. Plates were stored in PBS at 4° C. prior to staining. Fixed plates were washed 3 times with PBS and blocked with 24 IJL of GSDB (0.15% goat serum, 8.33% goat serum, 120 mM sodium phosphate, 225 mM NaCl) for 30 minutes. […]
U20S cells were plated on #1 glass coverslips (VWR) and were cultured in DMEM+Pen/Strep+10% v/v FBS (complete media) at 37° C. in a 5% CO2 atmosphere, then exposed to 10 Gy Ionizing radiation from a 137CS source in a Gammacell irradiator (Atomic Energy of Canada, Ltd). fixed in methanol, and processed for immuofluorescence using the antibodies indicated above. […] Quantitative image analysis was accomplished using CellProfiler (www.CellProfiler.org) or ImageJ software (http://rsb.info.nih.gov/nihimageJ).
In another assay the test system is CHEK2 mRNA. Kind of assay: CHEK2 mRNA expression by RT-PCR. To be noted: short term treatment; FIG. 6B, 6C. The format is cell-based, human.
Another assay has as its target Brd4 bromodomain 1 (Homo sapiens, UniProt O60885). To be noted: as reported previously (Nature 468:1067 (2010)); cited from earlier work.
Assay [3] deals with U20S cells. Kind of assay: Image-based screen: G2/M arrest and mitotic entry (DNA content, pHH3) after irradiation. The format is cell-based, human. To be noted: 10 Gy IR, FIGS. 1B, 1D, 1F, 1G.
Description: For both shRNA and small molecule screens, human U20S osteosarcoma cells (ATCC HTB-96) were grown in DMEM+Pen/Strep+10% v/v FBS (complete media) at 37° C. in a 5% CO2 atmosphere. All screens were carried out at passage 10-15. Cells were tested for mycoplasma by PCR prior to seeding and infection. U20S cells were seeded with a MicroFill (Biotek) in 384-well black, clear bottom plates (Greiner) at a density of 300 (shRNA) cells/well in 50 IJL of media, and allowed to attach overnight at 37° C. in a 5% CO2 atmosphere.
For shRNA screens, the media was exchanged the following day to complete media with 8 μg/mL polybrene using a JANUS workstation (PerkinElmer). Virus infection was carried out on an EP3 workstation (PerkinElmer) with 1.5 μL of hightiter retrovirus. […] Plates were centrifuged in a swinging-bucket rotor at 2250 rpm for 30 minutes following infection and returned to the incubator overnight. […]
Plates were allowed to equilibrate to room temperature for 30 minutes and imaged on a Cellomics ArrayScan VTI automated microscope with a 20× objective. […] Images were segmented and analyzed with CellProfiler cell image analysis software (Carpenter et al., Genome Biology, 2006, 7, R100). […]

Description for CHEK2 mRNA: as §1

Turning to a-amanitin, the “sensitivity of suppression of DDR signaling by Brd4 isoform B overexpression to transcription or translation inhibition” value in assay [1] is listed as “insensitive”.
On the same count and under the same terms, for `C[C@@H]1C[C@@H]([C@H](O)CC2CC(=O)NC(=O)C2)C(=O)[C@@H](C)C1` [cycloheximide] the value was “insensitive”.
As to `Cc1sc2c(c1C)C(c1ccc(Cl)cc1)=NC(CC(=O)OC(C)(C)C)c1nnc(C)n1-2` (single isomer, unassigned; (+)) [(+)JQ1], the “H2AX phosphorylation following IR” value with U20S cells [2] (compound at 250 nM, 10 Gy IR) is “enhanced H2AX phosphorylation following IR”. For the same compound, the “γH2AX foci formation after irradiation” value in the assay on U20S cells [2] (inhibition with JQ1 or short term Brd4 knockdown) was “sufficient to increase γH2AX foci formation after irradiation”. Besides, the “reversal of the ability of Brd4 isoform B to suppress γH2AX foci formation” value in assay [1] (cells overexpressing Brd4 isoform B, compound at 250 nM) is “reversed”. Further, the “CHEK2 mRNA” value with CHEK2 mRNA is on record as “no change in CHEK2 mRNA”. Besides, the “inhibition of Brd4 bromodomain 1 versus bromodomain 2” value on Brd4 bromodomain 1 is “more potent inhibition of Brd4 bromodomain 1 than bromodomain 2”.
As to `CN[C@@H]1C[C@H]2O[C@@](C)([C@@H]1OC)n1c3ccccc3c3c4c(c5c6ccccc6n2c5c31)C(=O)N[C@@H]4O` [UCN01], the “G2/M arrest following irradiation / mitotic entry” value in the assay with U20S cells [3] was “abrogated the normal G2/M arrest following irradiation, leading to premature mitotic entry”.
